This note sets out measurements from patent publication US9382306B2, “Octapeptide compounds derived from somatostatin and the therapeutic use thereof” (IPSEN PHARMA S.A.S., priority 2008, dated 2016).

The structures appear in SMILES notation. Bridge positions count the residues as written; N and C are the ends. Square brackets hold non-standard residues; d marks the D form. Peptide text beside a SMILES is read from it. ξ: configuration not given here. d2Nal = N[C@H](Cc1ccc2ccccc2c1)C(=O)O; Thr(3ξ) = CC(O)[C@H](N)C(=O)O Bounds are passed on as bounds.

The target of series [1] is T1, somatostatin receptors sub-type 2 (Homo sapiens, UniProt P30874).
T1 construct: expressed in transfected cells; membrane preparations
T1 sequence (P30874 whole entry): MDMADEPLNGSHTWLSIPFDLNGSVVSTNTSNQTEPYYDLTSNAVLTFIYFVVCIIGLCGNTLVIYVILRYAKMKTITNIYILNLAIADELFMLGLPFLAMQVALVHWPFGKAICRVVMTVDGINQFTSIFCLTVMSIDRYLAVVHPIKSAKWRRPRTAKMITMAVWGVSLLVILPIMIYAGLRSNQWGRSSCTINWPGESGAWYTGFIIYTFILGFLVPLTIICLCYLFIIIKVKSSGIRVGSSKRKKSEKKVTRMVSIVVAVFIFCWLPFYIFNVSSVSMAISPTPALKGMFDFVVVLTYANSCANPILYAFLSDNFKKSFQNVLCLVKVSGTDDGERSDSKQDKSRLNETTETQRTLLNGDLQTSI
Description: Affinity for somatostatin receptors: inhibition of [125I-Tyr11]SRIF-14 binding to membranes of transfected CHO-K1 cells. The note with it: competitive inhibition of [125I-Tyr11]SRIF-14 binding, 37° C. As for the experimental part: (§1) The affinity of the compounds of the invention for the somatostatin receptors is determined by measurement of the inhibition of the bond of [125I-Tyr11]SRIF-14 to membrane preparations of transfected CHO-K1 cells.
(§2) The CHO-K1 cells expressing in a stable fashion each of the sub-types of somatostatin receptors are collected with 0.5 mM of EDTA and centrifuged at 500 g for 5 minutes at 4° C. The pellet is re-suspended in phosphate buffer (PBS) and centrifuged at 500 g for 5 minutes at 4° C. The pellet is re-suspended in Tris 50 mM buffer at pH 7.4 and centrifuged at 500 g for 5 minutes at 4° C. The cells are lyzed by sonication and centrifuged at 39,000 g for 10 minutes. The pellet is re-suspended in Tris 50 mM buffer at pH 7.4, an aliquot is removed for assaying the proteins and the remainder is centrifuged at 50,000 g for 10 minutes. The membranes obtained in this last pellet are stored at −80° C.
(§3) Measurement of the competitive inhibition of the bond of [125I-Tyr11]SRIF-14 (Perkin Elmer) on each of the sub-types of somatostatin receptors is carried out in duplicate in 96-well polypropylene plates. The cell membranes (5 to 20 µg of proteins/well) are incubated with [125I-Tyr11]SRIF-14 (0.05 to 0.1 nM) for 50 to 90 minutes at 37° C. (conditions dependent on the sub-type of receptor) in a HEPES buffer medium 50 mM pH 7.4, comprising 0.2% bovine serum albumin (BSA), MgCl2 5 mM, Trasylol 200 KIU/mL, Bacitracin 0.02 mg/mL, phenylmethylsulphonyl fluoride 0.02 mg/mL.
(§4) The bound [125I-Tyr11]SRIF-14 is separated from the free [125I-Tyr11]SRIF-14 by filtration through GF/C glass fibre plates (Unifilter, Perkin Elmer) pre-impregnated with 0.1% polyethylenimine (P.E.I.), using a Filtermate 96 (Perkin Elmer). The filters are washed with Tris-HCl buffer 50 mM, pH 7.4 at 4° C. and the radioactivity present is determined using a counter (TopCount, Perkin Elmer).
(§5) The data are analyzed by computer-assisted non-linear regression using XLfit 4.2 (IDBS) software.

Series [2] in a line: Static release test in PBS. The series is classed as physicochemical. The note with it: 75 mM starting concentration, PBS pH 7.4, 37° C., % of free compound. As for the experimental part:
(§6) Release studies can be carried out on the octapeptide compounds according to the invention in the form of gel, solid, or in suspension. Two types of tests can be envisaged: static release tests and/or dynamic tests, both are briefly described hereafter.
The experimental parameters are common to both types of tests. The release medium is a liquid medium which is physico-chemically well-controlled, preferably a PBS (phosphate buffer saline) buffer adjusted to pH 7.4 and maintained at 37° C. The release curve is defined as the concentration of the studied compound in the dissolution medium (expressed in % of free compound) as a function of time (minutes, hours, days). To initiate the tests, a know quantity of sample is placed in the dissolution medium at time 0 (t=0 min/h/d), the sample being optionally conditioned in a device which is suited to its initial physical state (gel, solid, suspension). Measurements of the concentration of the compound in the release medium are carried out by one or more analytical methods which are well known in the state of the art such as UV-visible spectrophotometry or the HPLC (High Performance Liquid Chromatography). The parameters of the analytical methods are adjusted as a function of the physico-chemical characteristics of the compounds. […]

Series [3] can be described thus: Dynamic release test in PBS. The series is classed as physicochemical. As to conditions: PBS pH 7.4, 37° C., % of free compound. As to the method: as §6
The experimental parameters are common to both types of tests. The release medium is a liquid medium which is physico-chemically well-controlled, preferably a PBS (phosphate buffer saline) buffer adjusted to pH 7.4 and maintained at 37° C. The release curve is defined as the concentration of the studied compound in the dissolution medium (expressed in % of free compound) as a function of time (minutes, hours, days). To initiate the tests, a know quantity of sample is placed in the dissolution medium at time 0 (t=0 min/h/d), the sample being optionally conditioned in a device which is suited to its initial physical state (gel, solid, suspension). Measurements of the concentration of the compound in the release medium are carried out by one or more analytical methods which are well known in the state of the art such as UV-visible spectrophotometry or the HPLC (High Performance Liquid Chromatography). The parameters of the analytical methods are adjusted as a function of the physico-chemical characteristics of the compounds. The tests can be carried out with various starting concentrations such as 75 mM and 226 mM in the examples presented hereafter.
For the dynamic release studies, controlled stirring or a release medium flow is applied to the samples. In this mode, the samplings and/or concentration determinations are generally automated and the studies can be carried out in systems / instruments which are standardized and well known in the state of the art (cf. European Pharmacopeia systems). For example, certain studies in dynamic mode can be carried out on samples corresponding to the order of 10 mg of pure compound placed in 100 mL of PBS introduced beforehand into standardized beakers and maintained at 37° C. The stirring and samplings / measurements are controlled by a dissolution testing instrument of device type 1 or 2 described by the European Pharmacopeia.

Series [4] concerns the target T2, somatostatin receptors sub-type 5 (Homo sapiens, UniProt P35346).
T2 construct: expressed in transfected cells; membrane preparations
Description: Affinity for somatostatin receptors: inhibition of [125I-Tyr11]SRIF-14 binding to membranes of transfected CHO-K1 cells. As to conditions: competitive inhibition of [125I-Tyr11]SRIF-14 binding, 37° C. As to the method:
as §1, §2, §3, §4, §5

T2 sequence (P35346 whole entry): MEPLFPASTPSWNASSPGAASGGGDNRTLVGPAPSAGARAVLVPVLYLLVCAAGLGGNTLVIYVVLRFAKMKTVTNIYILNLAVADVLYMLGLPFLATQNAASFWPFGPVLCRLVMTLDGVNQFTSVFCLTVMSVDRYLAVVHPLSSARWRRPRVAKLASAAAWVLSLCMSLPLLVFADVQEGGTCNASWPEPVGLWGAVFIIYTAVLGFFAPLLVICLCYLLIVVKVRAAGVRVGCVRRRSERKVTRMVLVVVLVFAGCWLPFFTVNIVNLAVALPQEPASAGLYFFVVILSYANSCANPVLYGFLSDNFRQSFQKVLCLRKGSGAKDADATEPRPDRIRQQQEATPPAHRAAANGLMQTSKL

Consider `CC(C)[C@@H]1NC(=O)[C@H](CCCCN)NC(=O)[C@@H](C)NC(=O)[C@H](Cc2ccc(O)cc2)NC(=O)[C@@H](NC(=O)[C@H](N)Cc2ccc3ccccc3c2)CSSC[C@@H](C(=O)N[C@H](C(N)=O)C(C)O)NC1=O` (stereo partly drawn) [Example 4, H-D-2-Nal^1-cyclo(Cys^2Tyr^3-D-Ala^4-Lys^5-Val^6Cys^7)-Thr^8-NH2.2 CH3COOH] (H-[d2Nal]CY[dA]KVC[Thr(3ξ)]-NH2; disulfide 2-7), for which the Ki in series [1] is not above 5000 nM. In addition, in series [2], the “Static release after 48 h” value is reported as 85%. For the same molecule, the “Dynamic release after 44 h” value in series [3] (75 mM starting concentration) came out at 94%; in series [3] (226 mM starting concentration), 75%.
As to `CC(C)[C@@H]1NC(=O)[C@H](CCCCN)NC(=O)[C@@H](Cc2cccc3ccccc23)NC(=O)[C@H](Cc2ccc(O)cc2)NC(=O)[C@@H](NC(=O)[C@H](N)Cc2ccc3ccccc3c2)CSSC[C@@H](C(=O)N[C@H](C(N)=O)C(C)O)NC1=O` (stereo partly drawn) [Example 6, H-D-2-Nal^1-cyclo(Cys^2Tyr^3-13-(1-naphthyl)-D-Ala^4-Lys^5-Val^6-Cys^7)-Thr^8-NH2.2 CH3COOH], the Ki in series [1] is not above 5 nM; in series [4] it was not above 100 nM. Besides, the “Static release after 48 h” value in series [2] worked out at 25%. Also, the “Dynamic release after 44 h” value in series [3] (75 mM starting concentration) is recorded as 37%; in series [3] (226 mM starting concentration) it was 17%.
With `CC(C)[C@@H]1NC(=O)[C@H](CCCCN)NC(=O)[C@@H](Cc2c[nH]cn2)NC(=O)[C@H](Cc2ccc(O)cc2)NC(=O)[C@@H](NC(=O)[C@H](N)Cc2ccc3ccccc3c2)CSSC[C@@H](C(=O)N[C@H](C(N)=O)C(C)O)NC1=O` (stereo partly drawn) [Example 3, H-D-2-Nal^1-cyclo(Cys^2-Tyr^3-D-His^4-Lys^5-Val^6-Cys^7)-Thr^8-NH2.2 CH3COOH] (H-[d2Nal]CY[dH]KVC[Thr(3ξ)]-NH2; disulfide 2-7), the Ki in series [1] is not above 700 nM; in series [4], not above 5000 nM. In addition, the “Dynamic release after 44 h” value in series [3] (75 mM starting concentration) is on record as 100%; in series [3] (226 mM starting concentration) it was 93%.

A word on the Ki: it is a dissociation constant, usually derived from enzyme kinetics or from competition with a known ligand.
